In patent US9278083B2, “Methods for purifying trans-(−)-Δ9-tetrahydrocannabinol and trans-(+)-Δ9-tetrahydrocannabinol” (SVC Pharma LP, priority 2004, dated 2016):

Experiment: Storage stability of crystalline (±)-Δ^9-THC at 25° C.

CCCCCc1cc(O)c2c(c1)OC(C)(C)[C@@H]1CCC(C)=C[C@@H]21 (racemic) [crystalline (±)-Δ^9-THC, (±)-Δ^9-THC]
Stability on storage (off-white crystals of Example 17, at 25° C. in the presence of air and laboratory lighting): stable | Appearance (colour) on storage (white crystalline solid of Example 15, after at least three days at 25° C.): remained white
